Experimental data taken from patent publication US9080199B2, “Method to generate novel bioactive molecules” (priority 2010, dated 2015).
Entries after “also recorded” stand apart in the source; their conditions may differ.

Tested on: S. aureus N315 (MRSA N315)
Test: Disk / agar diffusion bioactivity test (zone of inhibition) against S. aureus N315
Assay type: cell-based, Staphylococcus aureus
Settings: clavu7 extract compounds/fractions, 25-30 μL on 6 mm filter disks on N315 lawn on TSA, 16-20 hours at 30° C.
Procedure: The two compounds were separated from one another by re-injecting the 11 to 11.5 minute fraction into the LC-MS system using an isocratic mobile phase of 30% methanol in water. Once separated, the two compounds were collected, concentrated by evaporating the solvent to a total volume of approximately 50 μL, and tested against S. aureus N315 to definitively determine which one is bioactive. This turned out to be m/z=215, which was identified as holomycin. Bioactivity testing is carried out by first spreading approximately 150 μL of an OD600˜0.01 S. aureus N315 culture in TSB onto a TSA plate to create a lawn of S. aureus N315. Next, 25-30 μL of each sample is deposited onto 6 mm sterile filter disks. The disks are allowed to dry and then placed onto the S. aureus N315 lawn. This plate is incubated for 16-20 hours at 30° C., after which it was examined for the appearance of a zone of inhibition around the disks.
The methanol sample was then concentrated further using a vacuum centrifuge (speed-vac or speed-yap) until approximately 100 μL remained. A 25 μL aliquot was then used to test for bioactivity against MRSA N315. This aliquot, which has not yet been fractionated on an HPLC system, is called a “crude extract.” About 40-50 μL of the concentrated sample was also injected into an HPLC-MS system. […]

CC(=O)Nc1c2sscc-2[nH]c1=O [holomycin]
bioactivity against S. aureus N315 (zone of inhibition around disks): inhibits growth; also recorded: bioactive | bioactivity against S. aureus N315 (zone of inhibition around disks) (listed as m/z=215 compound): bioactive
